Measurements reported in ChEMBL document CHEMBL3046151, “Assessment of antithyroid activity of 2,8-disulfanyl-1,9-dihydro-6H-purin-6-one in vitro and in vivo” (2012).
The source made the active and inactive calls. The calls are words filed in the database; no cut-off is given here.

What was measured:
Rattus norvegicus [1] = experiment: Antithyroid activity in Rattus norvegicus Wistar (rat) assessed as free thyroxin(T4) level in serum at 20 mg/kg, ip for 21 days measured after 21 days by radioimmunoassay (reference value: 33.171 +/- 0.474 pmol/l); assay type: functional; conditions: route intraperitoneal
Rattus norvegicus [2] = experiment: Antithyroid activity in Rattus norvegicus Wistar (rat) assessed as free triiodothyronine(T3) level in serum at 20 mg/kg, ip for 21 days measured after 21 days by radioimmunoassay (reference value: 8.007 +/- 0.167 pmol/l); assay type: functional; conditions: route intraperitoneal
Rattus norvegicus [3] = experiment: Antithyroid activity in Rattus norvegicus Wistar (rat) assessed as cylindrical follicles in thyroid gland at 20 mg/kg, ip for 21 days by microscopic analysis; assay type: functional, organism-based; design: dose 20 mg/kg
Rattus norvegicus [4] = experiment: Antithyroid activity in Rattus norvegicus Wistar (rat) assessed as thyroid stimulating hormone level in serum at 20 mg/kg, ip for 21 days measured after 21 days by ELISA (reference value: 1.83 +/- 0.307 microi.u/ml); assay type: functional; conditions: route intraperitoneal
[5] = Binding affinity to iodine assessed as compound-iodine complex formation by spectrophotometry
Rattus norvegicus [6] = experiment: Antithyroid activity in Rattus norvegicus Wistar (rat) assessed as little colloid material in epithelium of thyroid gland at 20 mg/kg, ip for 21 days by microscopic analysis; assay type: functional, organism-based; design: dose 20 mg/kg

Structure (SMILES)	Activity (Rattus norvegicus [1]) [pmol/L]	Activity (Rattus norvegicus [2]) [pmol/L]	Activity (Rattus norvegicus [3])	Activity (Rattus norvegicus [4]) [uIU/ml]	Activity [5]	Activity (Rattus norvegicus [6])
Oc1[nH]c(S)nc2nc(S)nc1-2	20.086	4.418	Active	8.126	Active	Active
Cn1ccnc1S [METHIMAZOLE]	25.096	5.162	Active	6.014		Active
